# Results published in US12129221B2, “Difluoro phenyl amide RIP1 inhibitor” (SIRONAX LTD, priority 2018, dated 2024).
# Columns and labels:
# [1] = Hepatocyte stability, dog; format: in vitro ADME; conditions: dog, hepatocytes, read-out: Dog T1/2
# Source text: (§1) Representative Metabolic Stability Data II, +, Extrapolated.
# PK in dog = conditions: in vivo
# [2] = Hepatocyte stability, mouse; format: in vitro ADME; conditions: mouse, hepatocytes, read-out: Mouse T1/2
# Source text: as §1
# [3] = Hepatocyte stability, human; format: in vitro ADME; conditions: human, hepatocytes, read-out: Human T1/2
# Source text: as §1
# PK in rat = assay: PK in rat; parameters: species or system SD rat; conditions: Sprague-Dawley, in vivo; for half-life / bioavailability: rat
# Source text: Representative PK Date of Pro-Drug Compounds
# [4] = Hepatocyte Stability, comparison table
# [5] = po, 60 mg/kg, SD rat, dose 60 mg/Kg micropower
smiles,measurement,setting,value
"CCC(C)(C)C(=O)N(O)Cc1cc(F)cc(F)c1 [Compound 13, N-(3,5-difluorobenzyl)-N-hydroxy-2,2-dimethylbutanamide]",half-life,[1]; [4],0.217 h
same,half-life,[1]; Hepatocyte stability,0.213 h
same,AUC(0-inf),PK in dog; IV 2 mg/kg,1840 ng·h/mL
same,clearance,PK in dog; IV 2 mg/kg,18.5 mL/min/kg
same,half-life,PK in dog; IV 2 mg/kg,1.02 h
same,Vd,"PK in dog; IV 2 mg/kg, read-out: Vdss",0.73 L/kg
same,AUC(0-inf),PK in dog; PO 10 mg/kg,1320 ng·h/mL
same,Cmax,PK in dog; PO 10 mg/kg,981 ng/mL
same,bioavailability,PK in dog; PO 10 mg/kg,14.9%
same,half-life,PK in dog; PO 10 mg/kg,7.15 h
same,AUC(0-inf),PK in dog; PO 60 mg/kg,2050 ng·h/mL
same,Cmax,PK in dog; PO 60 mg/kg,938 ng/mL
same,bioavailability,PK in dog; PO 60 mg/kg,4.06%
same,half-life,PK in dog; PO 60 mg/kg,5.65 h
same,AUC(0-inf),PK in dog; PO 150 mg/kg,7230 ng·h/mL
same,Cmax,PK in dog; PO 150 mg/kg,2440 ng/mL
same,bioavailability,PK in dog; PO 150 mg/kg,5.33%
same,half-life,PK in dog; PO 150 mg/kg,11.9 h
same,half-life,[2]; [4],0.333 h
same,half-life,[2]; Hepatocyte stability,0.335 h
same,half-life,[3]; [4],2.53 h
same,half-life,[3]; Hepatocyte stability,2.53 h
same,AUC(0-inf),"PK in rat; Rat, IV 2 mg/kg",540 ng·h/mL
same,clearance,"PK in rat; Rat, IV 2 mg/kg",61.7 mL/min/kg
same,Vd,"PK in rat; Rat, IV 2 mg/kg, read-out: Vdss",1.9 L/kg
same,AUC(0-inf),"PK in rat; Rat, PO 20 mg/kg",1580 ng·h/mL
same,Cmax,"PK in rat; Rat, PO 20 mg/kg",1570 ng/mL
same,AUC(0-inf),"PK in rat; Rat, PO 60 mg/kg",7520 ng·h/mL
same,Cmax,"PK in rat; Rat, PO 60 mg/kg",4910 ng/mL
same,AUC,"PK in rat; SD rat, PO, dose 60 mg/Kg micropower",7520 ng·h/mL
same,half-life,"PK in rat; iv, 2 mg/kg, IV 2 mg/kg",0.59 h
same,bioavailability,"PK in rat; po, 20 mg/kg, PO 20 mg/kg",39.4%
same,half-life,"PK in rat; po, 20 mg/kg, PO 20 mg/kg",1.4 h
same,bioavailability,"PK in rat; po, 60 mg/kg, PO 60 mg/kg",62.8%
same,half-life,"PK in rat; po, 60 mg/kg, PO 60 mg/kg",1.2 h
same,bioavailability,PK in rat; [5],62.8%
same,half-life,PK in rat; [5],1.17 h
